{
  "source": "patent US20260069531A1",
  "about": "“POLYMERIC LEUPROLIDE ACETATE FORMULATIONS” (Tolmar International Limited, priority 2023, published 2026)",
  "key": {"[1]": {"assay_type": "physicochemical", "text": "To produce the drug/solvent bulk solution comprising the API (LA), the desired amount of the LA was combined with the solvent NMP or DMSO or combination of solvents with or without a co-solvent or other additives, in the indicated amounts (see individual experiments below). The API and solvent were combined in a glass vial or jar. Jars were mixed using the jar mill, Turbula, or shaker at room temperature until homogeneous. LA is soluble in NMP or DMSO and can load higher concentrations (at least 40% w/w). After dissolving the API in the organic solvent, the bulk solution was manually filled into syringes and capped with a tip cap. The syringes used for filling were either 1.2 mL male polypropylene syringes, 1.2 mL male cyclic olefin copolymer syringes or 1 mL male cyclic olefin copolymer syringes. Filled syringes were then packaged in labeled foil pouches with a Syringe A (polymer-solvent solution) and a desiccant pack and the pouches were sealed. After filling the syringes with the formulations, they were terminally sterilized with an external radiation dose of 30 kGy from e-beam processing. After terminal sterilization, the syringes were stored under refrigerated conditions (e.g., 2-8° C.) or accelerated conditions (>25° C. see individual experiments)."}, "[2]": {"test": "LA gelation studies of drug solutions (60° C., inversion test, HPLC content)", "assay_type": "physicochemical", "conditions": "e-beam irradiated, 150 rpm, up to 16 days", "description": "Drug solutions were prepared as described above and filled into syringes or glass vials. Syringes were untreated, contained various amounts of silicone, or were plasma coated for lubrication. Samples were irradiated by e-beam irradiation at not less than 25 kGy and stored at accelerated conditions of 60° C. with agitation at 150 rpm for up to 16 days. Samples were inspected periodically to determine if the drug solution remained a solution or had formed a solid/gel by an inversion test. Samples that had “gelled” were transferred to 5° C. for subsequent testing.\nThe gelation rate for each sample was calculated as Rate=1/(simulated 5° C. age at time of gelation in days). The Arrhenius equation was used to determine the simulated age, assuming standard reaction rate doubling for every 10° C. increase in temperature. […] Data was analyzed using JMP. […] Container type and lubrication were not significant.\nSamples were tested for leuprolide content by HPLC. Leuprolide content was then converted to leuprolide acetate by multiplying by 1.078 (based on molecular mass ratios). A marked difference in leuprolide acetate content between the gelled and non-gelled samples was seen, with the tipping point between solution and solid/gelled samples occurring at about 45% LA."}},
  "data": [
    {"compound": "CCNC(=O)[C@@H]1CCCN1C(=O)[C@H](CCCNC(=N)N)NC(=O)[C@H](CC(C)C)NC(=O)[C@@H](CC(C)C)NC(=O)[C@H](Cc1ccc(O)cc1)NC(=O)[C@H](CO)NC(=O)[C@H](Cc1c[nH]c2ccccc12)NC(=O)[C@H](Cc1c[nH]cn1)NC(=O)[C@@H]1CCC(=O)N1", "note": "[Leuprolide Acetate, leuprolide acetate]", "values": [
      {"measurement": "concentration of LA that can be loaded (soluble)", "setting": "[1]", "value": "at least 40 % w/w"},
      {"measurement": "tipping point between solution and solid/gelled samples (leuprolide acetate content)", "setting": "[2]", "value": "about 45 % LA"}
    ]}
  ]
}
